Test results: ChEMBL document CHEMBL2062517, “Design, synthesis, and antiviral activity of entry inhibitors that target the CD4-binding site of HIV-1” (J Med Chem, 2012)

Experiments:
Assay type in all cases: cell-based
[1] = Cytotoxicity against human TZM-b1 cells after 3 days by XTT assay; details: for CC50 at 72 h: TZM-b1 cells; for CC50: tzm-b1, 72 h
[2] = Inhibition of X4-tropic HIV1 3B gp120-mediated entry into human MT2 cells assessed as Inhibition of p24 production incubated overnight followed by compound wash-out measured after 4 days post-infection by multi-cycle neutralization assay; details: Human immunodeficiency virus 1, 3B, MT2, 96 h
[3] = Inhibition of X4-tropic HIV1 HXB2 gp120-mediated entry into human TZM-b1 cells expressing CD4,CXCR4,CCR5,luciferase and beta-galactosidase after 3 days by single cycle neutralization assay; details: Human immunodeficiency virus 1, HXB2, TZM-b1, 72 h
MT2 [4] = assay: (§1) Cytotoxicity against human MT2 cells after 4 days by XTT assay; details: mt2, 96 h
[5] = Cytotoxicity against human TZM-b1 cells at >84 uM after 3 days by XTT assay; details: tzm-b1, 72 h
[6] = as §1; details: MT2 cells
[7] = Cytotoxicity against human TZM-b1 cells at >75.5 uM after 3 days by XTT assay; details: tzm-b1, 72 h
[8] = Cytotoxicity against human TZM-b1 cells at >60 uM after 3 days by XTT assay; details: tzm-b1, 72 h
[9] = Cytotoxicity against human TZM-b1 cells at >85 uM after 3 days by XTT assay; details: tzm-b1, 72 h
[10] = Cytotoxicity against human TZM-b1 cells at >74 uM after 3 days by XTT assay; details: tzm-b1, 72 h
[11] = Cytotoxicity against human TZM-b1 cells at >78.2 uM after 3 days by XTT assay; details: tzm-b1, 72 h
MT2 [12] = assay: Cytotoxicity against human MT2 cells at >[…] after 4 days by XTT assay; details: mt2, 96 h
[13] = Cytotoxicity against human TZM-b1 cells at >22 uM after 3 days by XTT assay; details: tzm-b1, 72 h
[14] = Cytotoxicity against human TZM-b1 cells at >88 uM after 3 days by XTT assay; details: tzm-b1, 72 h
MT2 [15] = assay: Cytotoxicity against human MT2 cells at >88 uM after 4 days by XTT assay; details: mt2, 96 h
[16] = Cytotoxicity against human TZM-b1 cells at >77.8 uM after 3 days by XTT assay; details: tzm-b1, 72 h
[17] = Cytotoxicity against human TZM-b1 cells at >87 uM after 3 days by XTT assay; details: tzm-b1, 72 h
[18] = Cytotoxicity against human TZM-b1 cells at >75.8 uM after 3 days by XTT assay; details: tzm-b1, 72 h
MT2 [19] = assay: Cytotoxicity against human MT2 cells at >62 uM after 4 days by XTT assay; details: mt2, 96 h
[20] = Cytotoxicity against human TZM-b1 cells at >90 uM after 3 days by XTT assay; details: tzm-b1, 72 h

Row | SMILES | CC50 at 72 h [1] [µM] | IC50 [2] [µM] | IC50 [3] [µM] | CC50 (MT2 [4]) [µM] | other results
1 | CC(=O)c1ccc(NC(=O)C(=O)NC(c2nc(C)c(CO)s2)C2CCCCN2)cc1 (mixture of isomers) | > 86 | 107 | > 86 | > 107 | 
2 | CC(=O)N1CCCCC1C(NC(=O)C(=O)Nc1ccc(Cl)cc1)c1nc(C)c(CCO)s1 (mixture of isomers) | > 84 | > 52 | 19.7 |  | Activity [5]: 20%
3 | Cc1nc(C(NC(=O)C(=O)Nc2ccc(Cl)cc2)C2CCCN2)sc1CO (mixture of isomers) |  | 15.4 | 4.8 |  | CC50 [1]: 12.4 µM; CC50 at 96 h [6]: 45 µM
4 | Cc1nc(C(NC(=O)C(=O)Nc2ccc(F)cc2F)C2CCCCN2)sc1CCO (mixture of isomers) | > 84 | > 105 | > 84 | > 105 | 
5 | Cc1nc(C(NC(=O)C(=O)Nc2ccc(C(F)(F)F)cc2)C2CCCCN2)sc1CO (mixture of isomers) | > 75.5 | 4.6 | 10.3 |  | Activity [7]: 10%
6 | CC1(C)CC(NC(=O)C(=O)Nc2ccc(Cl)cc2)CC(C)(C)N1 | > 60 | 8 | 4.2 |  | Activity [8]: 10%; CC50 at 96 h [6]: 150 µM
7 | Cc1nc(C(NC(=O)C(=O)Nc2ccc(Cl)cc2)C2CCNCC2)sc1CCO (racemic) | 85.4 | 30.5 | 1 | > 78.5 | 
8 | Cc1ccc(NC(=O)C(=O)NC(c2nc(C)c(CCO)s2)C2CCCCN2)cc1F (mixture of isomers) | > 85 | 3.7 | 1.66 |  | Activity [9]: 40%; CC50 at 96 h [6]: 85 µM
9 | Cc1nc(C(NC(=O)C(=O)Nc2ccc(C(F)(F)F)cc2)C2CCCCN2)sc1CCO (stereo unspecified) | > 74 | 17.4 | 4.9 | > 39 | Activity [10]: 35%
10 | Cc1nc(C(NC(=O)C(=O)Nc2ccc(F)c(F)c2)C2CCCCN2)sc1CCO (mixture of isomers) | > 78.2 | 24.1 | 8.2 |  | Activity [11]: 10%
11 | Cc1nc(C(NC(=O)C(=O)Nc2ccc(Cl)cc2)C2CCCNC2)sc1CCO (mixture of isomers) | 59.4 | 13.1 | 0.65 | > 78.5 | 
12 | Cc1nc(C(NC(=O)C(=O)Nc2ccc(Cl)cc2)C2CCCCN2)sc1CO (mixture of isomers) | > 22 | 4.7 | 4.3 | > 108 | Activity (MT2 [12]): 40%; Activity [13]: 10%
13 | Cc1nc(C(NC(=O)C(=O)Nc2ccc(Cl)cc2)C2CCCCN2C)sc1CCO (mixture of isomers) |  | 28.6 | 1.9 |  | CC50 [1]: 36 µM; CC50 at 96 h [6]: 88 µM
14 | CC(=O)c1ccc(NC(=O)C(=O)NC(c2nc(C)c(CCO)s2)C2CCCCN2)cc1 (mixture of isomers) | > 77.3 | 24.5 | > 77.3 | > 48.3 | 
15 | Cc1ccc(NC(=O)C(=O)NC(c2nc(C)c(CO)s2)C2CCCCN2)cc1F (mixture of isomers) | > 88 | 5.3 | 2.7 |  | Activity [14]: 0%; Activity (MT2 [15]): 30%
16 | Cc1nc(C(NC(=O)C(=O)Nc2ccc(F)c(Cl)c2)C2CCCCN2)sc1CO (mixture of isomers) | > 77.8 | 9.5 | 6.5 |  | Activity [16]: 0%
17 | Cc1nc(C(NC(=O)C(=O)Nc2ccc(F)c(F)c2)C2CCCCN2)sc1CO (mixture of isomers) | > 87 | 14 | 8.4 |  | Activity [17]: 0%

Row | SMILES | CC50 at 72 h [1] [µM] | IC50 [2] [µM] | IC50 [3] [µM] | CC50 (MT2 [4]) [µM] | other results
18 | CNCC(NC(=O)C(=O)Nc1ccc(Cl)cc1)c1nc(C)c(CCO)s1 (racemic) |  | 24.3 | 2.8 | > 43 | CC50 [1]: 16.6 µM
19 | C[C@@H](NC(=O)C(=O)Nc1ccc(Cl)cc1)[C@H](c1ccccc1)N1CCOCC1 | > 99.6 | > 24.9 | > 99.6 |  | 
20 | Cc1nc(C(NC(=O)C(=O)NC2CCCCCC2)C2CCCCN2)sc1CCO (mixture of isomers) | > 88 | 19.6 | > 88 |  | CC50 at 96 h [6]: 60 µM
21 | Cc1nc(C(NC(=O)C(=O)Nc2ccc(F)cc2F)C2CCCCN2)sc1CO (mixture of isomers) | > 87 | 110 | > 87 | > 110 | 
22 | Cc1nc(C(NC(=O)C(=O)Nc2ccc(Cl)c(F)c2)C2CCCCN2)sc1CO (mixture of isomers) | 58.4 | 3.8 | 1.6 |  | CC50 at 96 h [6]: 77.8 µM
23 | Cc1nc(C(NC(=O)C(=O)Nc2ccc(F)c(Cl)c2)C2CCCCN2)sc1CCO (mixture of isomers) | > 75.8 | 19.5 | 9 |  | Activity [18]: 20%; CC50 at 96 h [6]: 94.7 µM
24 | Cc1ccc(NC(=O)C(=O)NC(c2nc(C)c(CCO)s2)C2CCCCN2)c(F)c1 (mixture of isomers) | > 78.8 | 45.8 | > 78.8 |  | 
25 | Cc1nc(C(NC(=O)C(=O)Nc2ccc(Cl)cc2)C2CCCN2)sc1CCO (mixture of isomers) | 4.9 | 16.2 | 4.2 |  | CC50 at 96 h [6]: 42 µM
26 | CCn1cc(NC(=O)C(=O)Nc2ccc(Cl)cc2)cn1 | 8 | 11.9 | 5.9 | 10.7 | 
27 | Cc1nc(C(NC(=O)C(=O)Nc2ccc(F)cc2)C2CCCCN2)sc1CCO (mixture of isomers) | > 88 | 21.6 | 22 |  | CC50 at 96 h [6]: 109 µM
28 | Cc1nc(C(NC(=O)C(=O)Nc2ccc(Cl)cc2)C2CCCNC2)sc1CO (mixture of isomers) | 60.2 | 12 | 1.4 | > 81 | 
29 | Cc1nc(C(NC(=O)C(=O)Nc2ccc(Cl)cc2)C2CCCCN2)sc1CCO (mixture of isomers) |  | 4.2 | 4.6 | > 62 | CC50 [1]: 32.8 µM; Activity (MT2 [19]): 0%
30 | Cc1nc(C(NC(=O)C(=O)NC2CCCCCC2)C2CCCCN2)sc1CO (mixture of isomers) | > 90 | 39.3 | > 90 |  | 
31 | COC(=O)[C@@H]1C[C@@H](NC(=O)C(=O)Nc2ccc(Cl)cc2)[C@H](c2ccccc2)N1 | > 99.6 | > 24.9 | > 99.6 |  | 
32 | Cc1nc(C(NC(=O)C(=O)Nc2ccc(F)cc2)C2CCCCN2)sc1CO (mixture of isomers) | > 90 | 47.9 | 7.4 | > 113 | Activity [20]: 0%
33 | Cc1nc(C(NC(=O)C(=O)Nc2ccc(Cl)cc2)C2CCNCC2)sc1CO (racemic) | 81 | 29.8 | 0.83 | > 81 | 
34 | Cc1ccc(NC(=O)C(=O)NC(c2nc(C)c(CO)s2)C2CCCCN2)c(F)c1 (mixture of isomers) | > 88 | 66 | > 88 | > 109 | 
